From ChEMBL document CHEMBL1155870, “Design and synthesis of novel oxazole containing 1,3-dioxane-2-carboxylic acid derivatives as PPAR alpha/gamma dual agonists” (Bioorg Med Chem, 2008) come the findings set out here.

The source made the active and inactive calls. The rule behind the calls is not given here.

The target in series [1] is T1, Peroxisome proliferator-activated receptor alpha (Homo sapiens) (UniProt Q07869).
T1 sequence (whole entry): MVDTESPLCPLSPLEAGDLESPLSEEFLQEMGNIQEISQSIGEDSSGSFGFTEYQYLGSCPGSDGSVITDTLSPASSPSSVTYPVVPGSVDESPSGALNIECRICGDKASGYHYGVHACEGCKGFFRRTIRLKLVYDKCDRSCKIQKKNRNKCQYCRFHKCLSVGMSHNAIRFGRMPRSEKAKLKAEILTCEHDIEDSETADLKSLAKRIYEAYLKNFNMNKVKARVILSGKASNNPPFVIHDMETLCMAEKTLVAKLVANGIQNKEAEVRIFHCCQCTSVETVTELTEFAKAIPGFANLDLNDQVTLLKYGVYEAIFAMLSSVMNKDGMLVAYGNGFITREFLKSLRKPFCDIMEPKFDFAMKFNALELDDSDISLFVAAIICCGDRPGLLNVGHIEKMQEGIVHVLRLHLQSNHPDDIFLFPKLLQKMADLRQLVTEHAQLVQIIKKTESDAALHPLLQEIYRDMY
The experiment in a line: Agonist activity at PPARalpha expressed in human HepG2 cells at 10 uM assessed as induction of receptor transactivation by reporter gene assay relative to control. It is filed as functional, cell-based. Background: A reporter such as luciferase makes a cellular process visible.

A short description of series [2]: Tmax in Wistar rat at 30 mg/kg, po. Type of series: ADME, organism-based. More on the design: dose 30 mg/kg, route oral. The note with it: in vivo.
Series [3] relates to Rattus norvegicus. The experiment in a line: Hypolipidemic activity in Zucker diabetic fa/fa rat assessed as reduction in total cholesterol level at 3 mg/kg/day, po for 14 days. More on the design: scale not given: the % may be the effect or the level left. Type of series: functional.
Series [4] has as its target T2, Peroxisome proliferator-activated receptor alpha (Homo sapiens, UniProt Q07869).
T2 sequence (Q07869 whole entry): T1 sequence (whole entry)
As to the kind of experiment: Agonist activity at PPARalpha expressed in human HepG2 cells assessed as induction of receptor transactivation by reporter gene assay relative to control. It is filed as functional, cell-based.

The subject of series [5] is Mus musculus. As to the kind of experiment: Hypolipidemic activity in db/db mouse assessed as reduction in triglyceride level at 3 mg/kg/day, po for 6 days. Set-up: scale not given: the % may be the effect or the level left. Type of series: functional.
For series [6], the system named is Rattus norvegicus. As to the kind of experiment: Hypolipidemic activity in Zucker diabetic fa/fa rat assessed as reduction in triglyceride level at 3 mg/kg/day, po for 14 days. Type of series: functional. More on the design: scale not given: the % may be the effect or the level left.
Series [7] can be described thus: AUC (0 to infinity) in Wistar rat at 30 mg/kg, po. It is filed as ADME, organism-based. More on the design: time infinity, dose 30 mg/kg, route oral. The settings on record: plasma.
The test system of series [8] is Mus musculus. As to the kind of experiment: Hypoglycemic activity in db/db mouse assessed as reduction in plasma glucose level at 3 mg/kg/day, po for 6 days. Type of series: functional. Set-up: scale not given: the % may be the effect or the level left.
A short description of series [9]: Half life in Wistar rat at 30 mg/kg, po. It is filed as ADME, organism-based. More on the design: dose 30 mg/kg, route oral. The note with it: in vivo.
Series [10] in a line: Cmax in Wistar rat at 30 mg/kg, po. It is filed as ADME, organism-based. More on the design: dose 30 mg/kg, route oral. The note with it: in vivo.
Series [11] has as its system Rattus norvegicus. As to the kind of experiment: Insulin sensitizing activity in Zucker diabetic fa/fa rat assessed as reduction in fasted insulin level at 3 mg/kg/day, po for 14 days. Set-up: scale not given: the % may be the effect or the level left. Type of series: functional.
Series [12] relates to Rattus norvegicus. As to the kind of experiment: Hypoglycemic activity in Zucker diabetic fa/fa rat assessed as improvement in glucose AUC at 3 mg/kg/day, po for 14 days. It is filed as functional.
For series [13], the target named is T3, Peroxisome proliferator-activated receptor gamma (Homo sapiens, UniProt P37231).
T3 sequence (P37231 whole entry): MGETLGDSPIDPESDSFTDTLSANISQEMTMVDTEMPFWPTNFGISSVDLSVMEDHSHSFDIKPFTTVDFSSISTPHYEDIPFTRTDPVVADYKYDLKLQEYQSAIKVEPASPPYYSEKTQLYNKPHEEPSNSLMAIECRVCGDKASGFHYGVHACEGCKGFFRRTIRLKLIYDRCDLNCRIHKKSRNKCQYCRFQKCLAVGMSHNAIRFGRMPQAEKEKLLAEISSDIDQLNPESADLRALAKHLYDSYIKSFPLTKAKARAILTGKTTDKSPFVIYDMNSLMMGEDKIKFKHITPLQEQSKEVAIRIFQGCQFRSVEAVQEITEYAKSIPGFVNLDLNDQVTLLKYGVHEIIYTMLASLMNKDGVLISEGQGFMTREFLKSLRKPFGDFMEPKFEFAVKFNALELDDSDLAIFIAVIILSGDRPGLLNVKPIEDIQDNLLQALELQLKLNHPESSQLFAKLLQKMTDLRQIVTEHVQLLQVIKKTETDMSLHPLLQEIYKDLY
Description: Agonist activity at PPARgamma expressed in human HepG2 cells assessed as induction of receptor transactivation by reporter gene assay relative to control

In series [14] the test system is Mus musculus. As to the kind of experiment: Hypoglycemic activity in db/db mouse assessed as reduction in plasma glucose level at 30 mg/kg/day, po for 6 days. Type of series: functional, organism-based. More on the design: route oral; scale not given: the % may be the effect or the level left.

Consider `Cc1ccc(-c2nc(CCOc3ccc([C@H]4CO[C@@](C)(C(=O)O)OC4)cc3)c(C)o2)cc1`, for which the result in series [1] was inactive.
Take `Cc1ccc(-c2nc(COc3ccc(C[C@H]4CO[C@@](C)(C(=O)O)OC4)cc3)c(C)o2)cc1`: the Tmax (commonly the time at which the peak concentration occurs) in series [2] was determined as 1.7 h. The Activity with Rattus norvegicus [3] is 30%; in the series on Mus musculus [5], 50%; with Rattus norvegicus [6] it was 71%; in the series with Mus musculus [8] it was 57%; with Rattus norvegicus [11] it was 77%; with Rattus norvegicus [12] it was 51%. Further, the EC50 (in general, the concentration needed to bring the measured effect to its halfway point) in series [4] was 0.072 nM; in [13], 15 nM. In [7], the AUC(0-inf) (as a rule, the area under the concentration-time curve extrapolated to infinity) is 351 µg·h/mL. In addition, in [9], the half-life (in general, the time in which the quantity being followed falls by half) was 2.7 h. Also, the Cmax (in general, the peak of the concentration-time curve) in series [10] came to 54 µg/mL. Besides, the fold change (FC) in [1] was determined as 8.2.
As to `Cc1ccc(-c2nc(CCOc3ccc(C[C@H]4CO[C@@](C)(C(=O)O)OC4)cc3)c(C)o2)s1`, the EC50 came to 0.03 nM in series [4] and 239 nM in [13]. The fold change (FC) in series [1] is 6.8.
Regarding `Cc1ccc(-c2nc(CCCOc3ccc(C[C@H]4CO[C@@](C)(C(=O)O)OC4)cc3)c(C)o2)cc1`, the fold change (FC) in series [1] worked out at 1.8.
Still for that read-out and setting: then `Cc1cccc(Nc2cc(Cl)nc(SCC(=O)O)n2)c1C`, with 4.4.
In the case of `Cc1oc(C(C)(C)C)nc1CCOc1ccc(C[C@H]2CO[C@@](C)(C(=O)O)OC2)cc1`, the EC50 in series [4] amounted to 4.2 nM; in [13], 5010 nM. In addition, the fold change (FC) in series [1] was determined as 5.8.
For the compound `Cc1ccc(-c2nc(COc3ccc([C@H]4CO[C@@](C)(C(=O)O)OC4)cc3)c(C)o2)cc1`, the fold change (FC) in series [1] is 2.7.
Take `Cc1oc(-c2ccccc2)nc1COc1ccc(C[C@H]2CO[C@@](C)(C(=O)O)OC2)cc1`: the EC50 in [4] turned out to be 1.09 nM; in series [13], 96 nM. Moreover, the fold change (FC) in series [1] stood at 6.5.
As to `Cc1oc(-c2ccccc2)nc1CCOc1ccc([C@H]2CO[C@@](C)(C(=O)O)OC2)cc1`, in [1], the fold change (FC) was 3.
As to `Cc1ccc(-c2nc(COc3ccc(C[C@H]4CO[C@@](C)(C(=O)O)OC4)cc3)c(C)o2)s1`, the concentration giving a half-maximal response (EC50) in [4] amounted to 0.6 nM; in series [13], 19.8 nM. In addition, the fold change (FC) in series [1] came out at 5.6.
On the same counts, the results for `Cc1ccc(-c2nc(CCOc3ccc(C[C@H]4CO[C@@](C)(C(=O)O)OC4)cc3)c(C)o2)cc1` are 0.089 nM, 1380 nM and 6.3.
As for `Cc1oc(-c2ccccc2)nc1COc1ccc([C@H]2CO[C@@](C)(C(=O)O)OC2)cc1`, in series [1], the fold change (FC) was determined as 3.
As to `Cc1oc(-c2ccccc2)nc1CCOc1ccc(C[C@H]2CO[C@@](C)(C(=O)O)OC2)cc1`, the EC50 was found to be 0.272 nM in series [4] and 4100 nM in [13]. In addition, the fold change (FC) in series [1] was determined as 5.3.
Take `Cc1oc(C(C)(C)C)nc1COc1ccc(C[C@H]2CO[C@@](C)(C(=O)O)OC2)cc1`: in series [1], the fold change (FC) was 2.3.
As for `CCO[C@@H](Cc1ccc(OCCc2ccc(OS(C)(=O)=O)cc2)cc1)C(=O)O` [TESAGLITAZAR], the Activity in the series with Rattus norvegicus [3] worked out at 16%; with Mus musculus [5], 60%; with Rattus norvegicus [6], 67%; in the series on Mus musculus [8], 54%; in the series on Rattus norvegicus [11], 91%; in the series with Rattus norvegicus [12], 51%.
Consider `CN(CCOc1ccc(CC2SC(=O)NC2=O)cc1)c1ccccn1` (stereo not given) [ROSIGLITAZONE], for which the Activity in the series on Mus musculus [14] was determined as 54%.
